Data: patent EP0099121A2, “Pharmaceutical compositions” (Bristol-Myers Company, priority 1982, dated 1984)
Like-named read-outs stand apart in the source and are kept apart here. Where a SMILES comes first, the peptide text is derived from it. [ ]: non-standard residue; d: D form. The star is where a group is joined. Sta = CC(C)C[C@H](N)[C@@H](O)CC(=O)O; Isovaleryl = CC(C)CC(=O)*

How the values were obtained:
[1] = test system: pepsin; conditions: duodenal ulcer; cited from earlier work
[2] = test system: pepsin; conditions: patients with ulcer dyspepsia; cited from earlier work
[3] = all animal species studied; cited from earlier work
[4] = test system: stomach ulcers; conditions: rat, in vivo; cited from earlier work
[5] = test system: pepsin; conditions: cited from earlier work
[6] = daily oral doses of 700 mg for up to three months; cited from earlier work
[7] = test system: duodenal ulcer; conditions: 100 mg doses seven times a day, cited from earlier work
[8] = test system: pepsin; assay: 18 hour pylorus ligated rat; assay type: in vivo; conditions: 20 mg/kg po
[9] = test system: gastric ulcer; conditions: 100 mg doses seven times a day, versus placebo; cited from earlier work
[10] = test system: pepsin; conditions: in the feed at >50 ppm; cited from earlier work
[11] = cited from earlier work

In the case of `CC(C)CC(=O)N[C@H](C(=O)N[C@H](C(=O)N[C@@H](CC(C)C)[C@@H](O)CC(=O)N[C@@H](C)C(=O)N[C@@H](CC(C)C)[C@@H](O)CC(=O)O)C(C)C)C(C)C` [pepstatin] (Isovaleryl-VV[Sta]A[Sta]-OH), the “benefit in patients with duodenal ulcer” value [1] is given as “ineffective”, the “effect on the gastric acidity” value [2] is given as “no effect” and the gastric peptic activity [2] is given as “inhibits gastric peptic activity”. For the same compound, the LD50 [3] was “exceeded 3000 mg/kg”, the “formation of stomach ulcers” value [4] was “prevent the formation of stomach ulcers” and the “duration of pepsin suppression” value [5] was “about 1 hours”. For the same compound, the side effects [6] was “no side effects were observed”, the “healing or symptomatology of duodenal ulcer” value ([7]; versus placebo) was “no significant difference between pepstatin and placebo” and the “duration of inhibition of peptic activity of gastric juice” value [7] was 18 hours a day. For the same compound, the pepsin activity [8] was “completely inhibited”, the ulcer formation [8] was “antagonized ulcer formation” and the “healing or symptomatology of gastric ulcer” value [9] was “not able to detect any influence”. For the same compound, the occurrence of ulcers [10] was “prevented the occurrence of ulcers”, the “pepsin activity in the gastric juice” value [10] was “inhibited pepsin activity” and the “excreted in the feces” value ([11]; animal studies, oral, within 72 hours) was “more than 90%”. For the same compound, the “absorption upon oral administration” value [11] was “essentially unabsorbed” and the “absorption upon oral administration” value ([11]; listed as Pepstatin) was “only poorly absorbed”.
